Test: Stability of crystalline form against polymorphic transformation at 60% relative humidity (PXRD comparison, FIG. 2)
Assay type: physicochemical
Source text: FIG. 2 illustrates an X-ray powder diffraction pattern of form X of dexLansoprazole compared with the same form X after a week at 60% relative humidity.
As used herein in connection with form X, the term “stable” refers to stability against transformation, in which no more than about 20% of a polymorphic form transforms to another form under no less than about 60% relative humidity at about room temperature. When made according to the preferred embodiments of the present invention, less than 20% of form X transforms to any other form upon exposure to a RH of 60% at room temperature for a period of 7 days.
For ARL Powder diffractometer (All XRD Figures except FIG. 13):
Sample: Spin/Oscillate mode Range: 2-40 degrees two-theta Scan mode: Continuous scan Step size: 0.05 deg Scan rate: 3 deg./min

amount of the form that transforms to any other form (exposure to RH of 60% at room temperature for 7 days): less than 20%
stability of the crystalline form (PXRD pattern after storage) (relative humidity of 60%, room temperature, 7 days, PXRD, FIG. 2): retains its PXRD pattern
SMILES: Cc1c(OCC(F)(F)F)ccnc1C[S@@+]([O-])c1nc2ccccc2[nH]1 [form X, (R)-2-[(3-methyl-4-(2,2,2-trifluoroethoxy)pyridin-2-yl)methylsulfinyl]-1H-benzoimidazole]

From US20100113527A1, “CRYSTALLINE FORMS OF DEXLANSOPRAZOLE” (Teva Pharmaceutical Industries Ltd., priority 2008, published 2010)
